{
  "source": "patent US20140274766A1",
  "about": "“METHODS OF USING F-SPONDIN AS A BIOMARKER FOR CARTILAGE DEGENERATIVE CONDITIONS AND BONE DISEASES” (priority 2009, published 2014)",
  "key": {"OA cartilage": {"system": "OA cartilage", "experiment": "IL-1 effect on gene expression in OA cartilage explant cultures (QPCR)", "type": "cell-based, human", "conditions": "IL-1 1 ng/ml, 24-72 h, OA cartilage explants", "description": "FIG. 7: IL-1 inhibited F-spondin and aggrecan expression in OA cartilage. OA cartilage was stimulated with IL-1 (1 ng/ml) for 24-72 h and total RNA was isolated and QPCR was performed.\nSince IL-1 β appears to play a significant role in the pathogenesis of OA, its effects on F-spondin expression by QPCR in cartilage explants cultures was studied. Briefly, knee articular cartilage from patients undergoing knee replacement surgery was obtained and cut in 3-mm discs, and four to six discs (˜100 mg) were placed in organ culture in 2 ml of Ham's F-12 medium+0.1% human albumin (endo toxin fr) for 24-72 h, in the presence and absence of IL-1beta (1 ng/ml). At the end of the experiment the cartilage was frozen immediately in liquid nitrogen for RNA extraction."}, "chick chondrocytes": {"system": "chick chondrocytes", "experiment": "Alkaline phosphatase (AP) activity in RA-stimulated chick chondrocyte cultures", "type": "cell-based", "conditions": "RA 3 days", "description": "FIG. 16. Inhibition of F-spondin decreases AP activity in RA stimulated cultures. Chick chondrocytes were treated with RA at 100 nm for 5 days with and without F-spondin antibodies and AP activity assessed. Antibodies with specificities to the spondin domain (medium grey) and TSR domain (black) inhibited AP activity compared to ctrl (noAb) (light grey). Note the greater inhibitory effect of the TSR domain antibody. * p=<0.05 versus no ab ctrl.\nFIG. 17. The pro-maturation effect of F-spondin is not inhibited following neutralization of TGF-β activity by coculture with Latency Associated Peptide (LAP). AP activity was determined in chick chondrocyte cultures by ELISA following RA stimulation for 3 days. Cultures were either ctrl (RA only) or RA with either F-Spondin (1 ug/ml) or LAP (10 or 100 ng/ml), or RA with F-Spondin (1 ug/ml) and LAP (10 or 100 ng/ml) in combination.\nFIG. 18. Blocking αvβ3 integrin inhibits the promaturation effect of F-spondin. Chondocyte cultures were transfected as previously and stimulated with RA for 3 days in the presence of IgG control, or αvβ3 blocking antibodies prior to assay for AP activity. Inhibition of αvβ3 led to a ˜50% suppression of F-spondin-induced AP activity but had no effect on baseline AP activity (vector ctrl).\nFIGS. 23A, 23B and 23C. F-spondin regulation of chondrocyte maturation requires the TSR domain. (A) Schematic representation of F-spondin protein domains and plasmid constructs encoding either full length (FS1) or TSR domain truncated (FS6) cDNAs. (B) Relative AP activity of FS or pcDNA3 control transfected cultures after 5 days treatment. (C) Relative AP activity following inhibition of F-spondin protein domains. Upper sternal chondrocytes were stimulated with 0, 10, 35 or 100 nM retinoic acid (RA) for 5 days in culture. […]\nWe next determined that the pro-maturation effect of F-spondin is not inhibited following neutralization of TGF-β activity by coculture with Latency Associated Peptide (LAP) (R&D Systems, Cat No 246-LP/CF). […] AP activity was determined in chick chondrocyte cultures by ELISA following RA stimulation for 3 days. […]"}, "[1]": {"system": "embryonic chick chondrocytes", "experiment": "TGF-β treatment of embryonic chick chondrocytes, maturation marker expression (quantitative PCR)", "type": "cell-based", "conditions": "TGF-β 5 days", "description": "FIGS. 24A and 24B. TGF-β enhances chondrocyte maturation and is required for F-spondin mediated induction of AP. (A) Relative gene expression of chondrocyte maturation markers following TGF-β treatment. Upper sternal chondrocytes were treated with TGF-β at the indicated doses for 5 days and mRNA levels determined by quantitative PCR. Values are expressed relative to untreated controls. (B) Effect of TGF-β depletion on F-spondin-mediated induction of AP. The conditioned media of FS1 or pcDNA3 transfected chondrocytes was harvested and immunodepleted of TGF-β or left untreated, and added to separate cultures in the presence of RA. […] Values represent mean expression levels of triplicate samples relative to untreated supernatants from vector ctrl cultures (=1).\nWe have previously reported that F-spondin can regulate the synthetic activity of articular chondrocytes via activation of latent TGF-β (Attur, M et al (2009) Faseb J 23:79-89). Since the TSR domain harbors conserved TGF-β binding motifs, we proposed that F-spondin-mediated enhancement of chondrocyte maturation similarly occurs via TGF-β. […] To determine whether […] is required for F-spondin induction of AP, we transfected chick chondrocytes with FS1 or control vector cDNA and harvested conditioned media supernatants after 48 h. Supernatants were then depleted of TGF-β by coincubation with anti-TGF-b antibody and added to separate cultures of chick chondrocytes in the presence of retinoic acid for 24 h."}},
  "data": [
    {"substance": "IL-1: pro-inflammatory cytokine", "values": [
      {"measurement": "expression of F-spondin", "setting": "OA cartilage", "result": "significantly inhibited"},
      {"measurement": "expression of aggrecan", "setting": "OA cartilage", "result": "significantly inhibited"}
    ]},
    {"substance": "LAP: Latency Associated Peptide (R&D Systems), neutralizes TGF-β activity", "values": [
      {"measurement": "effect on AP activity increase seen with F-spondin alone", "setting": "chick chondrocytes; LAP 10-100 ng/ml with F-Spondin 1 ug/ml", "result": "did not significantly alter"},
      {"measurement": "chondrocyte maturation", "setting": "chick chondrocytes; LAP 10-100 ng/ml", "result": "accelerates maturation"}
    ]},
    {"substance": "TGF-β", "values": [
      {"measurement": "expression of AP", "setting": "[1]", "result": "dose dependent increases"},
      {"measurement": "expression of F-spondin", "setting": "[1]", "result": "dose dependent increases"},
      {"measurement": "expression of MMP-13", "setting": "[1]", "result": "dose dependent increases"}
    ]}
  ]
}
